Source: ChEMBL document CHEMBL4024785 (J Med Chem, 2018)

Assays:
[1] = biological target: Carbonic anhydrase 9 (Homo sapiens, UniProt Q16790)
Description: Inhibition of recombinant human carbonic anhydrase 9 expressed in Escherichia coli L21-GOLD (DE3) incubated for 10 mins prior to testing by stopped-flow CO2 hydration assay

[2] = biological target: Carbonic anhydrase 1 (Homo sapiens, UniProt P00915)
Description: Inhibition of recombinant human carbonic anhydrase 1 expressed in Escherichia coli L21-GOLD (DE3) incubated for 10 mins prior to testing by stopped-flow CO2 hydration assay

[3] = biological target: Carbonic anhydrase 12 (Homo sapiens, UniProt O43570)
Carbonic anhydrase 12, sequence (O43570 whole entry): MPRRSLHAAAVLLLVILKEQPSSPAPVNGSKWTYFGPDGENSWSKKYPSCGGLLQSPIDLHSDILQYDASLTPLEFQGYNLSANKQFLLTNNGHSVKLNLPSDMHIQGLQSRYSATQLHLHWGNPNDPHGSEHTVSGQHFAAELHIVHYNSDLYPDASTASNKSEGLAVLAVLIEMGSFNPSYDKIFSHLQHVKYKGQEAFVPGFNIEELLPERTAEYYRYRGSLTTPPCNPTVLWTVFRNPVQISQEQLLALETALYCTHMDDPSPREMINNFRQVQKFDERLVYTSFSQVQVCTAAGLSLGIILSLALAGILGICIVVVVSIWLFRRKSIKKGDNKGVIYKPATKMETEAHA
Description: Inhibition of recombinant human carbonic anhydrase 12 expressed in Escherichia coli L21-GOLD (DE3) incubated for 10 mins prior to testing by stopped-flow CO2 hydration assay

Carbonic anhydrase 1, sequence (P00915 whole entry): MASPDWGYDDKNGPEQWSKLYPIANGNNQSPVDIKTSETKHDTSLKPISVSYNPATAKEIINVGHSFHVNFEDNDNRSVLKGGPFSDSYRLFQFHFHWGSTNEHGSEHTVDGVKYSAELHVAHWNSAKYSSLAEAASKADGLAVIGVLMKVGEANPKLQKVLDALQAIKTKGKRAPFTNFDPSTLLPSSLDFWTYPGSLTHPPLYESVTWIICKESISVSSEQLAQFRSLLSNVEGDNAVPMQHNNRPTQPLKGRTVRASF

Ki [1]: 100 nM
Ki [2]: > 20 µM
Ki [3]: 650 nM
Structure (SMILES): O=C1NS(=O)(=O)c2ccccc21 [SACCHARIN]
